Molecular target: T1, neutral/alkaline ceramidase derived from a mouse liver (Mus musculus, UniProt Q9JHE3)
T1 construct: the ceramidase purified from the mouse liver lacked the peptide of the N-terminal portion of the polypeptides encoded by the above-mentioned ORF; from tissue; host or cells: mouse liver (membrane fraction, purified by chromatography)
Experiment: Substrate specificity of the ceramidase (degradation of 14C-labeled sphingolipids, TLC)
Type: biochemical
Settings: for Degradation Ratio (%): 5 milliunits ceramidase on 100 pmol 14C-labeled sphingolipid, 25 mM Tris-HCl pH 7.5, 1% sodium cholate, 37° C., 24 hours; for Substrate specificity (in words): as shown in Table 1
Experimental: Five milliunits of the ceramidase of the present invention is acted on 100 pmol of various kinds of sphingolipids, in which the fatty acid moiety is labeled with ^14C-radioactive isotope, in […] of 25 mM Tris-hydrochloric acid buffer, pH 7.5, containing 1% sodium cholate at 37° C. for 24 hours. The reaction mixture is developed on silica gel thin layer chromatography. Thereafter, the ^14C-labeled sphingolipids and the ^14C-labeled fatty acids generated by the enzymatic reaction are detected and quantified by Imaging Analyzer BAS1000 (manufactured by Fuji Photo Film). The degradation ratio is calculated from the obtained values.

T1 sequence (Q9JHE3 75-756): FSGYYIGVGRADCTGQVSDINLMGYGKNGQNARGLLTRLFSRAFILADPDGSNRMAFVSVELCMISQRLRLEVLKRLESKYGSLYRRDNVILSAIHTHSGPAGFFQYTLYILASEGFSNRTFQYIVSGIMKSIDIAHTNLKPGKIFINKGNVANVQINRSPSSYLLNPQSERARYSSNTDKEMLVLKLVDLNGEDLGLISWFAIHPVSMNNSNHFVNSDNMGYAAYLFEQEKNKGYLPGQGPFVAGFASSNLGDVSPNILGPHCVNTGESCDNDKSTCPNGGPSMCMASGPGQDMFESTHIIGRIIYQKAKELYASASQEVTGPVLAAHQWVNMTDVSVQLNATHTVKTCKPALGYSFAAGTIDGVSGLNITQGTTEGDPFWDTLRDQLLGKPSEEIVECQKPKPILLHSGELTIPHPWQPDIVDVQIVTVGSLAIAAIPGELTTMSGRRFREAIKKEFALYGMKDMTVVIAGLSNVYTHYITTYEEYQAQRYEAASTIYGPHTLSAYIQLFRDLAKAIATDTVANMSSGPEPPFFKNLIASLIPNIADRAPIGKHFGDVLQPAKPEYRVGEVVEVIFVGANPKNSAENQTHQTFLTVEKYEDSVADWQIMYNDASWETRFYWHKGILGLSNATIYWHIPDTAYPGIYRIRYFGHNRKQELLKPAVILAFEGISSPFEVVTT

Row | Compound | Degradation Ratio (%) | Substrate specificity (in words)
1 | CCCCCCCCCCCCCCCCCC(=O)N[C@@H](CO)[C@H](O)CCCCCCCCCCCCCCC [N-Stearoylsphinganine] | 40% | –
2 | Galb1-3GalNAcb1-4(NeuAca2-3)Galb1-4G1cb1-1′Cer [GM1a] | 0% | not acting
3 | Sphingomyelin | 0% | not acting
4 | CCCCCCCCCCCCCCCC(=O)N[C@@H](CO)[C@H](O)[C@H](O)CCCCCCCCCCCCCC [N-Palmitoylphytosphingosine] | 5% | –
5 | CCCCCCCCCCCCC/C=C/[C@@H](O)[C@H](CO)NC(=O)CCCCCCCCCCC [N-Lauroylsphingosine] | 63% | –
6 | CCCCCCCCCCCCCCCC(=O)N[C@@H](CO)[C@H](O)CCCCCCCCCCCCCCC [N-Palmitoylsphinganine] | 59% | –
7 | CCCCCCCCCCCCC/C=C/[C@@H](O)[C@H](CO)NC(=O)CCCCCCCCCCCCCCC [N-Palmitoylsphingosine] | 93% | –
8 | Sulfatide | 0% | not acting
9 | Galactosylceramide | 0% | not acting
10 | CCCCCCCCCCCCC/C=C/[C@@H](O)[C@H](CO)NC(=O)CCCCCCCCCCCNc1ccc([N+](=O)[O-])c2nonc12 [12-((N-(7-nitrobenz-2-oxa-1,3-diazol-4-yl)amino)dodecanoyl)sphingosine] | 97% | –
11 | CCCCCCCCCCCCC/C=C/[C@@H](O)[C@H](CO)NC(=O)CCCCCNc1ccc([N+](=O)[O-])c2nonc12 [6-((N-(7-nitrobenz-2-oxa-1,3-diazole-4-yl)amino)hexanoyl)sphingosine] | 2% | –
12 | CCCCCCCCCCCCCCCCCC(=O)N[C@@H](CO)[C@H](O)[C@H](O)CCCCCCCCCCCCCC [N-Stearoylphytosphingosine] | 2% | –
13 | CCCCCCCCCCCCC/C=C/[C@@H](O)[C@H](CO)NC(=O)CCCCCCCCCCCCCCCCC [N-Stearoylsphingosine] | 83% | –

Source: patent US7449553B2, “Antibody that binds ceramidase” (Takara Bio Inc., priority 1999, dated 2008)
